Test results: ChEMBL document CHEMBL1138228, “N,N'-Bisbenzylidenebenzene-1,4-diamines and N,N'-Bisbenzylidenenaphthalene-1,4-diamines as Sirtuin Type 2 (SIRT2) Inhibitors” (J Med Chem, 2006)

These compounds were tested against T1, NAD-dependent protein deacetylase sirtuin-2 (Homo sapiens) (UniProt Q8IXJ6) (assay: Inhibition of SIRT2 at 200 uM).
T1 sequence (whole entry): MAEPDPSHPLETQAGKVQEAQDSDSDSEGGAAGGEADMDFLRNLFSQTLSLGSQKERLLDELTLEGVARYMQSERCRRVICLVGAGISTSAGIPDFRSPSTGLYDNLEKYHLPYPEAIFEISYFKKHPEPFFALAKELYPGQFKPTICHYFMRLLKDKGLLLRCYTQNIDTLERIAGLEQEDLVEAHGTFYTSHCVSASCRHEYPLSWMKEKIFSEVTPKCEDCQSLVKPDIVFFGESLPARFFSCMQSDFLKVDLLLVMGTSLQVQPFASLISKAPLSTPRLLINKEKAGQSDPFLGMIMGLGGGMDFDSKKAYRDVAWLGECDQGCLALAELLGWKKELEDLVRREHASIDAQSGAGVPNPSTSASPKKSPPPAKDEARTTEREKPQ

Point of comparison: `COc1ccc(/C=N/c2ccc(/N=C/c3ccc(OC)cc3)c3ccccc23)cc1`, inhibition 17%. Against it:
- Oc1ccccc1/C=N/c1ccc(/N=C/c2ccccc2O)cc1 — higher, 56%
- COc1ccccc1/C=N/c1ccc(/N=C/c2ccccc2OC)c2ccccc12 — higher, 34%
- Oc1cccc(/C=N/c2ccc(/N=C/c3cccc(O)c3)cc2)c1 — lower, 12%
- Oc1ccccc1CNc1ccc(NCc2ccccc2O)cc1 — higher, 27%
- COc1cccc(/C=N/c2ccc(/N=C/c3cccc(OC)c3)c3ccccc23)c1 — higher, 20%
- COc1ccccc1/C=N/c1ccc(/N=C/c2ccccc2OC)cc1 — lower, 13%
- Oc1ccc(/C=N/c2ccc(/N=C/c3ccc(O)c(O)c3)cc2)cc1O — lower, 13%
- c1ccc(CNc2ccc(NCc3ccccc3)cc2)cc1 — higher, 21%
- Oc1ccc(/C=N/c2ccc(/N=C/c3ccc(O)cc3)cc2)cc1 — higher, 22%
- Oc1cccc(/C=N/c2ccc(/N=C/c3cccc(O)c3)c3ccccc23)c1 — higher, 53%
- Oc1cccc(CNc2ccc(NCc3cccc(O)c3)cc2)c1 — lower, 8%
- C(=N\c1ccc(/N=C/c2ccccc2)c2ccccc12)/c1ccccc1 — higher, 18%
- Oc1ccc(CNc2ccc(NCc3ccc(O)cc3)cc2)cc1 — lower, 14%
- Oc1ccc(/C=N/c2ccc(/N=C/c3ccc(O)cc3)c3ccccc23)cc1 — higher, 64%
- C(=N\c1ccc(/N=C/c2ccccc2)cc1)/c1ccccc1 — higher, 35%
- COc1cccc(/C=N/c2ccc(/N=C/c3cccc(OC)c3)cc2)c1 — higher, 20%
- Oc1ccccc1/C=N/c1ccc(/N=C/c2ccccc2O)c2ccccc12 — higher, 38%

What follows are compounds tested against T2, NAD-dependent protein deacetylase sirtuin-2 (Homo sapiens, UniProt Q8IXJ6) (assay: Inhibition of SIRT2).
T2 sequence (Q8IXJ6 whole entry): T1 sequence (whole entry)

Point of comparison: `Oc1cccc(/C=N/c2ccc(/N=C/c3cccc(O)c3)c3ccccc23)c1`, IC50 196 µM. Against it:
- Oc1ccccc1/C=N/c1ccc(/N=C/c2ccccc2O)cc1 — 3.4-fold lower, 58.4 µM
- Oc1ccc(/C=N/c2ccc(/N=C/c3ccc(O)cc3)c3ccccc23)cc1 — within 1.5-fold, 137 µM
